Measured values published in ChEMBL document CHEMBL6071173, “Machine Learning Accelerates Screening of Osteoclast Differentiation Inhibitors from Natural Products” (2024).
Calls of active or inactive are those of the source. No cut-off for these calls is given here.

Tests used:
[1] = tested on: RAW 264; experiment: Inhibition of RANKL-induced osteoclastogenesis in mouse RAW 264 cells at 1 nM […] by TRAP staining based assay; type: functional, cell-based
[2] = Inhibition of RANKL-induced osteoclastogenesis in mouse RAW 264 cells at 20 uM […] by TRAP staining based assay relative to control; type: functional; conditions: RAW264.7
[3] = tested on: RAW 264; experiment: Cytotoxicity against mouse RAW 264 cells assessed as reduction in cell viability at upto 160 uM by MTT assay; type: functional, cell-based

CC1=C(/C=C/C(C)=C/C=C/C(C)=C/C(=O)O)C(C)(C)CCC1
inhibition [1]: Active

C/C=C/C=C/C(=O)O[C@H]1CC/C=C/[C@H](O)[C@H](O)[C@@H](CCC)OC1=O [PINOLIDOXIN]
inhibition at 20 µM [2]: 57% | Activity [3]: inactive
